Source: ChEMBL document CHEMBL5543103, “Toward a Template for Synthetic Actin-Targeting Macrolide Analogues That Inhibit Cancer Cell Invasiveness” (J Med Chem, 2024)
pIC50: −log10 of the molar value. Calls of active or inactive are those of the source. The rule behind the calls is not given here.

Legend:
[1] = species on record: Homo sapiens; test: Induction of F-actin depolymerization (unknown origin) at 10 uM measured for 900 sec in presence of ATP by fluorescence spectrophotometer method relative to MycB
[2] = species on record: Oryctolagus cuniculus; test: (§1) Inhibition of rabbit skeletal muscle G-actin polymerization at 0.5 uM preincubated for 50 sec followed by ATP addition and measured for 600 sec by fluorescence spectrophotometer method relative to control; conditions: time 650.0 sec
[3] = Partition coefficient, logP of compound; format: physicochemical; conditions: octanol/water
[4] = test system: A549; test: Inhibition of cell invasion in human A549 cells assessed as decrease in wound density at 10 uM after 50 hrs by IncuCyte live-cell imaging analysis; format: functional, cell-based
[5] = test system: KB; test: Cytotoxicity against human KB cells; format: functional, cell-based
[6] = as §1; parameters: species or system Oryctolagus cuniculus
[7] = test system: L1210; test: Cytotoxicity against mouse L1210 cells; format: functional, cell-based
[8] = test system: Cell membrane; test: Disruption of membrane in human SK-OV-3 cells assessed as F-actin aggregates formation at 1 uM; format: cell membranes
[9] = test system: Cell membrane; test: Disruption of membrane projections in human SK-OV-3 cells at 1 uM; format: cell membranes
[10] = test system: B16; test: Cytotoxicity against mouse B16 cells; format: functional, cell-based
[11] = test system: A549; test: Inhibition of cell invasion in human A549 cells assessed as decrease in wound density at 0.1 uM after 50 hrs by IncuCyte live-cell imaging analysis; format: functional, cell-based
[12] = test system: Cell membrane; test: Disruption of membrane projections in human SK-OV-3 cells at 0.1 uM; format: cell membranes
[13] = test system: Cell membrane; test: Disruption of membrane in human SKOV3 cells assessed as F-actin aggregates formation at 0.1 uM; format: cell membranes; conditions: SK-OV-3

Structure (SMILES)	Activity [1] [%]	inhibition [2] [%]	also measured
CCC(=O)O[C@@H](C[C@H](OC)[C@@H](C)CC[C@@H](OC(=O)C1CCCC1)[C@H](C)[C@H](OC)[C@H](C)/C=C/N(C)C=O)C(C)C	39	53	–
CO[C@@H]([C@@H](C)[C@@H](CC[C@H](C)[C@H](C[C@H](OC(=O)CCCN)C(C)C)OC)OC(=O)[C@H]1CCCO1)[C@H](C)/C=C/N(C)C=O	58	53	logP [3]: 4.18; inhibition [4]: Active
CC[C@@H](O)C[C@H](OC)[C@@H](C)CC[C@@H](OC(=O)C(C)C)[C@H](C)[C@H](OC)[C@H](C)/C=C/N(C)C=O	0	30	–
CCC(=O)O[C@@H](C[C@H](OC)[C@@H](C)CC[C@@H](OC(=O)[C@@H]1CCCO1)[C@H](C)[C@H](OC)[C@H](C)/C=C/N(C)C=O)C(C)C	67	50	–
CCC(=O)O[C@@H](C[C@H](OC)[C@@H](C)CC[C@@H](OC(=O)C(C)C)[C@H](C)[C@H](OC)[C@H](C)/C=C/N(C)C=O)C(C)C	6	21	–
CO[C@@H]1CC2=CC(=O)O[C@H](C2)[C@H](C)[C@H](OC)C[C@@H](OC)/C=C/[C@H](C)[C@@H](OC)C[C@@H](OC)/C=C/[C@H](C)[C@@H]([C@@H](C)[C@@H](OC)[C@@H](C)CCC(=O)[C@H](C)[C@@H](C/C=C/N(C)C=O)OC)OC(=O)/C=C/C=C(\C)C1	–	–	pIC50 [5]: 7.00
CCC(=O)O[C@@H](C[C@H](OC)[C@@H](C)CC[C@@H](OC(=O)C(C)C)[C@H](C)[C@H](OC)[C@H](C)/C=C/N(C=O)CC)C(C)C	87	85	–
CCC(=O)O[C@@H](C[C@H](OC)[C@@H](C)CC[C@@H](OC(=O)C1CCC1)[C@H](C)[C@H](OC)[C@H](C)/C=C/N(C)C=O)C(C)C	52	67	–
CCC(=O)O[C@H](CC)C[C@H](OC)[C@@H](C)CC[C@H](OC(=O)CC)[C@H](C)[C@H](OC)[C@H](C)/C=C/N(C)C=O	17	–	pIC50 [6]: 5.26
CCC(=O)O[C@@H](C[C@H](OC)[C@@H](C)CC[C@@H](OC(=O)[C@H]1CCCO1)[C@H](C)[C@H](OC)[C@H](C)/C=C/N(C)C=O)C(C)C	75	72	logP [3]: 5.3
CO[C@H]([C@H](C)/C=C/N(C)C=O)[C@@H](C)C(=O)CC[C@H](C)[C@H](C[C@@H]1OC(=O)C[C@@H](OC(N)=O)C[C@H](C)C[C@H](O)[C@H](C)[C@@H](OC)c2coc(n2)-c2coc(n2)-c2coc(n2)/C=C/C[C@H](OC)[C@H]1C)OC [KABIRAMIDE C]	–	–	pIC50 [7]: 8.00
CCN(C=O)/C=C/[C@@H](C)[C@@H](OC)[C@@H](C)[C@@H](CC[C@H](C)[C@H](C[C@H](OC(=O)CCCN)C(C)C)OC)OC(=O)[C@H]1CCCO1	–	–	logP [3]: 4.55; Activity [8]: Active; Activity [9]: Active; inhibition [4]: Active
CO[C@@H]1C/C=C/c2nc(co2)-c2nc(co2)-c2nc(co2)[C@@H](C)CC(=O)CCC[C@@H](O)CC(=O)O[C@H](C[C@@H](OC)[C@@H](C)CCC(=O)[C@H](C)[C@H](OC(C)=O)[C@H](C)/C=C/N(C)C=O)[C@H]1C	–	–	pIC50 [7]: 8.00
CCC(=O)O[C@@H](C[C@H](OC)[C@@H](C)CC[C@@H](OC(=O)[C@H]1CCCN1C)[C@H](C)[C@H](OC)[C@H](C)/C=C/N(C)C=O)C(C)C	25	45	–
CCC(=O)O[C@H](CC)C[C@H](OC)[C@@H](C)CC[C@@H](OC(=O)C(C)C)[C@H](C)[C@H](OC)[C@H](C)/C=C/N(C)C=O	33	40	–
CCC(=O)O[C@@H](C[C@H](OC)[C@@H](C)CC[C@@H](OC(=O)C(C)C)[C@H](C)C(OC)[C@H](C)/C=C/N(C=O)C1CC1)C(C)C (single isomer, unassigned)	56	77	–
CCC(=O)O[C@@H](C[C@H](OC)[C@@H](C)CC[C@@H](OC(=O)C(C)C)[C@H](C)[C@H](OC)[C@H](C)/C=C/N(C=O)CC(F)(F)F)C(C)C	53	81	–
COC[C@@H](OC)C(=O)O[C@H](CC[C@H](C)[C@H](C[C@@H]1OC(=O)C[C@@H](O)C/C=C/C(=O)[C@H](C)[C@H](OC)c2coc(n2)-c2coc(n2)-c2coc(n2)/C=C/C[C@H](OC)[C@H]1C)OC)[C@H](C)[C@H](OC(C)=O)[C@H](C)/C=C/N(C)C=O	–	–	pIC50 [10]: 9.30; inhibition [11]: Active; Activity [12]: Active; Activity [13]: Active
CCCN(C=O)/C=C/[C@@H](C)[C@@H](OC)[C@@H](C)[C@@H](CC[C@H](C)[C@H](C[C@H](OC(=O)CC)C(C)C)OC)OC(=O)C(C)C	32	40	–
CCC(=O)O[C@@H](C[C@H](OC)[C@@H](C)CC[C@@H](OC(=O)C(C)C)[C@H](C)[C@H](OC)[C@H](C)/C=C/N1CCCCC1=O)C(C)C	14	18	–
CCC(=O)O[C@@H](C[C@H](OC)[C@@H](C)CC[C@@H](OC(=O)C1CCCCC1)[C@H](C)[C@H](OC)[C@H](C)/C=C/N(C)C=O)C(C)C	20	65	–
CCC(=O)O[C@@H](C[C@H](OC)[C@@H](C)CC[C@@H](OC(=O)C(C)C)[C@H](C)[C@H](OC)[C@H](C)/C=C/N1CCCC1=O)C(C)C	26	29	–
CCC(=O)O[C@H](CC)C[C@H](OC)[C@@H](C)CC[C@@H](OC(=O)CC)[C@H](C)[C@H](OC)[C@H](C)/C=C/N(C)C=O	42	–	pIC50 [6]: 6.00
CCC(=O)O[C@@H](C[C@H](OC)[C@@H](C)CC[C@@H](OC(=O)C(C)C)[C@H](C)[C@H](OC)[C@H](C)/C=C/N1CCC1=O)C(C)C	12	30	–
CCC(=O)O[C@@H](C[C@H](OC)[C@@H](C)CC[C@@H](OC(=O)[C@H]1CCCO1)[C@H](C)[C@H](OC)[C@H](C)/C=C/N(C=O)CC)C(C)C	77	63	logP [3]: 5.67
CCC(=O)O[C@@H](C[C@H](OC)[C@@H](C)CC[C@@H](OC(=O)c1ccco1)[C@H](C)[C@H](OC)[C@H](C)/C=C/N(C)C=O)C(C)C	41	43	–
CCC(=O)O[C@@H](C[C@H](OC)[C@@H](C)CC[C@@H](OC(=O)C(C)C)[C@H](C)[C@H](OC)[C@H](C)/C=C/N(C)C=O)C1CCCCC1	45	52	–
CO[C@@H](C[C@@H]1OC(=O)C[C@@H](O)C[C@H](O)C[C@H](O)[C@H](C)[C@@H](OC)c2coc(n2)-c2coc(n2)-c2coc(n2)/C=C/CC[C@H]1C)[C@@H](C)CCC(=O)[C@H](C)[C@@H](C/C=C/N(C)C=O)OC	–	–	pIC50 [7]: > 9.00
